Laboratory results as given in US20260256704A1, “STEALTH-STABILIZED LIPO-POLYAMINO ACIDS” (POLYPEPTIDE THERAPEUTIC SOLUTIONS, S.L., priority 2022, published 2026).

Experiments:
HeLa cells = experiment: Luciferase assay for transfection efficiency in HeLa cells; type: cell-based; details: LNPs containing the conjugate
Procedure: (§1) HeLa cells were cultured in DMEM high glucose with Glutamax (Gibco—Thermo Fisher #61965-059) supplemented with 10% of Fetal Bovine Serum (Hyclone #SV30160.03HI, provided by GE Healthcare Europe GmbH) and 1% penicillin/streptomycin. Transfections were carried out on 96-well plates containing 10000 cells/well in a final volume of 100 μl, and cells were incubated 24 hours at 37° C. and 5% CO2. After 24 h from cell seeding, the medium was removed and refreshed with 90 μl of complete medium. 10 μl of each LNPs formulation were added to the cells. In the case of positive control (Lipofectamine™ 2000 Transfection Reagent, Invitrogen™), manufacturer guidelines were followed. After 24 hours cells were recovered and processed.
(§2) After 24 h post-incubation with the LNPs formulation, 100 μl of BrightGlo reagent (Promega #E2620) was added in each well following manufacturer instructions. After 5 minutes of incubation at room temperature luciferase activity was measured using VictorNivo (PerkinElmer). Data was represented as luminescence relative to the percentage of transfection relative to the positive control of transfection.
The transfection data is represented as % of the positive control Lipofectamine™ 2000 being the positive control 100% after 24 h of treatment and cell viability is compared to non-treated (NT) cells, being the ATP content readout of NT (non-treated) cells equal to 100%.

HEK293 cells = experiment: Luciferase assay for transfection efficiency in HEK293 cells; type: cell-based; details: at different concentrations (50-300 ng mRNA/well)
Procedure: as §1, with “HEK293” for “HeLa”, “30000” for “10000”, “cells.” for “cells. In the case of positive control (Lipofectamine™ 2000 Transfection Reagent, Invitrogen™), manufacturer guidelines were followed.”
as §2, with “transfection. […]” for “transfection.”

Row | Substance | transfection efficiency relative to the gold standard Lipofectamine (HeLa cells) [fold] | transfection efficiency relative to the commercial standard DMG-PEG (HEK293 cells)
1 | C14-PGA(Diol) [Lipo-PAA1] | 2.5 | 
2 | C14-PSar [C14PSar] |  | comparable transfection to DMG-PEG
